Laboratory results as given in patent publication US8952024B2, “Herbicidal pyrimidone derivatives” (E I du Pont de Nemours and Company, priority 2009, dated 2015).

Legend:
Assay type in all cases: in vivo
[1] = system: barnyardgrass (Echinochloa crus-galli); test: Test A pre-/postemergence plant response
Method in brief: (§1)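 Approximately ten days after concurrent pre- and postemergence spraying in a greenhouse, plants were compared with untreated controls and rated visually for injury, 0 = no effect to 100 = complete control. Preemergence spray was directed onto loam/sand soil; postemergence targeted 1–2 leaf seedlings.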

corn (Zea mays) = test: Test A pre-/postemergence plant response
Method in brief: as §1

[2] = system: giant foxtail (Setaria faberii); test: Test A pre-/postemergence plant response
Method in brief: as §1

[3] = system: large crabgrass (Digitaria sanguinalis); test: Test A pre-/postemergence plant response
Method in brief: as §1

[4] = system: morningglory (Ipomoea spp.); test: Test A pre-/postemergence plant response
Method in brief: as §1

[5] = system: pigweed (Amaranthus retroflexus); test: Test A pre-/postemergence plant response
Method in brief: as §1

[6] = system: velvetleaf (Abutilon theophrasti); test: Test A pre-/postemergence plant response
Method in brief: as §1

[7] = system: wheat (Triticum aestivum); test: Test A pre-/postemergence plant response
Method in brief: as §1

[8] = system: winter barley (Hordeum vulgare); test: Test B postemergence plant response; conditions: for Barley plant response rating (0 to 100 scale): 62 g ai/ha, 0 is no effect, 13 to 15 days
Method in brief: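 Visual ratings from 0 (no effect) to 100 (complete control), made against controls 13–15 days after treatment, kept in a greenhouse. Compounds were applied postemergence to potted plants at the 1- to 4-leaf stage (2–18 cm).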

[9] = system: barnyardgrass (Echinochloa crus-galli); test: Test B flooded paddy test; conditions: for Plant response rating, Flood, Barnyardgrass: 250 g ai/ha, flooded paddy test, visual rating on 0 to 100 scale (0 no effect, 100 complete control) after 13 to 15 days; for Plant response rating, Barnyardgrass: Flood (flooded paddy test), 13 to 15 days
Method in brief: (§2)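 2-leaf seedlings; pots flooded 3 cm over soil at treatment; cpd dosed into floodwater, depth kept constant. Greenhouse 13–15 d. Visual rating vs untreated controls, 0 = no effect, 100 = complete control.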

[10] = system: ducksalad (Heteranthera limosa); test: Test B flooded paddy test; conditions: for Plant response rating, Flood, Ducksalad: 250 g ai/ha, flooded paddy test, visual rating on 0 to 100 scale (0 no effect, 100 complete control) after 13 to 15 days; for Plant response rating, Ducksalad: Flood (flooded paddy test), 13 to 15 days
Method in brief: as §2

rice (Oryza sativa) = test: Test B flooded paddy test; conditions: for Plant response rating, Flood, Rice: 250 g ai/ha, flooded paddy test, visual rating on 0 to 100 scale (0 no effect, 100 complete control) after 13 to 15 days; for Plant response rating, Rice: Flood (flooded paddy test), 13 to 15 days
Method in brief: as §2

[11] = system: umbrella sedge (Cyperus difformis); test: Test B flooded paddy test; conditions: for Plant response rating, Flood, Sedge, Umbrella: 250 g ai/ha, flooded paddy test, visual rating on 0 to 100 scale (0 no effect, 100 complete control) after 13 to 15 days; for Plant response rating, Sedge, Umbrella: Flood (flooded paddy test), 13 to 15 days
Method in brief: as §2

[12] = Postemergence, 125 g ai/ha, 0 to 100 scale where 0 is no effect and 100 is complete control
[13] = Postemergence, 500 g ai/ha, 0 to 100 scale, 0 = no effect, 100 = complete control, approx. ten days
[14] = Preemergence, 125 g ai/ha, 0 to 100 scale, 0 = no effect, 100 = complete control
[15] = Preemergence, 500 g ai/ha, visual injury, 0 to 100 scale (0 no effect, 100 complete control), approx. ten days
[16] = 31 g ai/ha, postemergence, scale 0 to 100, 0 is no effect, 100 is complete control
[17] = postemergence, 100 is complete control
[18] = Postemergence, 125 g ai/ha, visual rating after 13 to 15 days, scale 0 (no effect) to 100 (complete control)
[19] = Postemergence, 250 g ai/ha, scale 0 to 100 (0 no effect, 100 complete control)
[20] = 62 g ai/ha, scale of 0 to 100 where 0 is no effect and 100 is complete control
[21] = 125 g ai/ha, scale 0 to 100, 0 is no effect, 100 is complete control
[22] = Flood, 31 g ai/ha, scale 0 to 100 (0 no effect, 100 complete control)

## CCCCn1c(-c2ccccc2)ncc(C(=O)C2=C(O)CCCC2=O)c1=O [Compound 86]
[1]; [12]
  Plant response rating, Barnyardgrass: 90
[1]; [13]
  Plant response rating, Barnyardgrass: 90
[1]; [14]
  Plant response rating, Barnyardgrass: 20
[1]; [15]
  Plant response rating, Barnyardgrass: 100
Corn (Zea mays); [12]
  Plant response rating, Corn: 0
Corn (Zea mays); [13]
  Plant response rating, Corn: 50
[2]; [12]
  Plant response rating, Foxtail, Giant: 80
[2]; [13]
  Plant response rating, Foxtail, Giant: 90
[2]; [15]
  Plant response rating, Foxtail, Giant: 100
[3]; [12]
  Plant response rating, Crabgrass, Large: 90
[3]; [13]
  Plant response rating, Crabgrass, Large: 90
[4]; [12]
  Plant response rating, Morningglory: 90
[4]; [13]
  Plant response rating, Morningglory: 90
[4]; [14]
  Plant response rating, Morningglory: 0
[4]; [15]
  Plant response rating, Morningglory: 60
[5]; [12]
  Plant response rating, Pigweed: 100
[5]; [13]
  Plant response rating, Pigweed: 100
[6]; [12]
  Plant response rating, Velvetleaf: 100
[6]; [13]
  Plant response rating, Velvetleaf: 100
[6]; [15]
  Plant response rating, Velvetleaf: 100
[7]; [12]
  Plant response rating, Wheat: 0
[7]; [13]
  Plant response rating, Wheat: 50
[8]; [16]
  Plant response rating, Barley: 30
[8]; [17]
  Barley plant response rating (0 to 100 scale): 40
[8]; [18]
  Plant response rating, Barley: 60
[8]; [19]
  Plant response rating, Barley: 65
[9]
  Plant response rating, Flood, Barnyardgrass: 60
[9]; [20]
  Plant response rating, Barnyardgrass: 40
[9]; [21]
  Plant response rating, Barnyardgrass: 50
[9]; [22]
  Barnyardgrass plant response rating: 30
[10]
  Plant response rating, Flood, Ducksalad: 65
[10]; [20]
  Plant response rating, Ducksalad: 55
[10]; [21]
  Plant response rating, Ducksalad: 55
[10]; [22]
  Ducksalad plant response rating: 0
Rice (Oryza sativa)
  Plant response rating, Flood, Rice: 40
Rice (Oryza sativa); [20]
  Plant response rating, Rice: 0
Rice (Oryza sativa); [21]
  Plant response rating, Rice: 20
Rice (Oryza sativa); [22]
  Rice plant response rating: 0
[11]
  Plant response rating, Flood, Sedge, Umbrella: 85
[11]; [20]
  Plant response rating, Sedge, Umbrella: 30
[11]; [21]
  Plant response rating, Sedge, Umbrella: 70
[11]; [22]
  Sedge, Umbrella plant response rating: 20

## CCCc1ncc(C(=O)C2=C(O)CCCC2=O)c(=O)n1-c1ccccc1C [Compound 73]
[1]; [12]
  Plant response rating, Barnyardgrass: 70
[1]; [13]
  Plant response rating, Barnyardgrass: 90
[1]; [14]
  Plant response rating, Barnyardgrass: 0
[1]; [15]
  Plant response rating, Barnyardgrass: 70
Corn (Zea mays); [12]
  Plant response rating, Corn: 30
Corn (Zea mays); [13]
  Plant response rating, Corn: 60
Corn (Zea mays); [14]
  Plant response rating, Corn: 0
Corn (Zea mays); [15]
  Plant response rating, Corn: 0
[2]; [12]
  Plant response rating, Foxtail, Giant: 80
[2]; [13]
  Plant response rating, Foxtail, Giant: 90
[2]; [14]
  Plant response rating, Foxtail, Giant: 50
[2]; [15]
  Plant response rating, Foxtail, Giant: 70
[3]; [12]
  Plant response rating, Crabgrass, Large: 90
[3]; [13]
  Plant response rating, Crabgrass, Large: 90
[3]; [14]
  Plant response rating, Crabgrass, Large: 70
[3]; [15]
  Plant response rating, Crabgrass, Large: 100
[4]; [12]
  Plant response rating, Morningglory: 100
[4]; [13]
  Plant response rating, Morningglory: 100
[4]; [14]
  Plant response rating, Morningglory: 10
[4]; [15]
  Plant response rating, Morningglory: 80
[5]; [12]
  Plant response rating, Pigweed: 100
[5]; [13]
  Plant response rating, Pigweed: 100
[5]; [14]
  Plant response rating, Pigweed: 100
[5]; [15]
  Plant response rating, Pigweed: 100
[6]; [12]
  Plant response rating, Velvetleaf: 100
[6]; [13]
  Plant response rating, Velvetleaf: 100
[6]; [14]
  Plant response rating, Velvetleaf: 80
[6]; [15]
  Plant response rating, Velvetleaf: 100
[7]; [12]
  Plant response rating, Wheat: 10
[7]; [13]
  Plant response rating, Wheat: 50
[7]; [14]
  Plant response rating, Wheat: 10
[7]; [15]
  Plant response rating, Wheat: 30
[8]; [16]
  Plant response rating, Barley: 0
[8]; [17]
  Barley plant response rating (0 to 100 scale): 0
[8]; [18]
  Plant response rating, Barley: 0
[8]; [19]
  Plant response rating, Barley: 10
[9]
  Plant response rating, Flood, Barnyardgrass: 0
[9]; [20]
  Plant response rating, Barnyardgrass: 0
[10]
  Plant response rating, Flood, Ducksalad: 0
[10]; [20]
  Plant response rating, Ducksalad: 0
Rice (Oryza sativa)
  Plant response rating, Flood, Rice: 0
Rice (Oryza sativa); [20]
  Plant response rating, Rice: 0
[11]
  Plant response rating, Flood, Sedge, Umbrella: 0
[11]; [20]
  Plant response rating, Sedge, Umbrella: 0
